In patent publication US20230346769A1, “USE OF SIMPLE ACYCLIC POLYAMINES FOR THE TREATMENT OF DISEASES CAUSED BY PARASITES OF THE GENUS LEISHMANIA” (Universidad De Granada, priority 2020, published 2023):

Experiments:
[1] = system: L. infantum promastigote forms; experiment: In vitro activity against extracellular (promastigote) forms; type: cell-based, Leishmania infantum
Source text: (§1) Methodology: Cultures of three Leishmania species, representative of the species causing each of the clinical forms of the disease, were used for these studies. Specifically, strains MCAN/ES/2001/UCM-1 O of L.infantum, isolated and characterised in Madrid from an infected dog; MHOM/BR/1975/M2904 of L.braziliensis, isolated in Brazil in a human case, and LCR-L 133 LRC of L.donovani. isolated in Jerusalem, Israel from a case of kala-azar […] (WHO Technical Reports Series 949. Geneva: WHO. March. The cultures of parasites come from an own collection which was prepared from a biobank project (Biobank and Characterisation Unit of Strains and Species of Trypanosomatids, Responsible for Human, Animal and Plant Pathologies, Cgl-2008-03687-E/Bos.), and are available on request.
(§2) The promastigote forms of the three species studied were cultured in vitro in sterility in single-phase MTL culture medium (Medium Trypanosomes Liquid) made from Hank’s Balanced Salts (Sigma-Aldrich, H6136) enriched with 10% (v/v) of Fetal Bovine Serum (SBF-1) inactivated at 56° C./ 30 minutes. The parasite inoculum to initiate the culture was 5 × 10^4 cells/ml in 5 ml medium in 25 cm^2 Falcon® plastic flasks and kept in an oven at 28° C. The cultures were performed routinely, achieving exponential growth of the flagellates until obtaining the cell mass necessary for the subsequent studies. Both promastigote forms and amastigote forms were used to conduct the assays.
(§3) The promastigote forms of the three Leishmania strains, cultured in the manner described above, were harvested in their exponential growth phase by centrifugation at 400 g for 10 min. The number of parasites was counted in a Neubauer Haemocytometer Counting Chamber and were inoculated in a 24-well plate at a concentration of 5 ×10^4 parasites/well.
(§4) The compounds to be assayed were dissolved in DMSO at a concentration of 0.01% (v/v), concentration at which this solvent is not toxic nor has any effect on the growth of parasites. The compounds were added to the culture medium at final concentrations of 100, 50, 25 and 12.5 µM. […] M. et al. Med. Chem. 2011. 54. 970-979].

[2] = system: L. infantum amastigote forms; experiment: In vitro activity against intracellular (amastigote) forms in macrophages; type: cell-based, Leishmania infantum
Source text: as §1
(§5) For the study of the in vitro effect on intracellular forms of Leishmania, the experimental model designed by the group of the present inventors was used [Sánchez-Moreno. M. et al. Med. Chem. 2012, 55, 9900-9913; Sánchez-Moreno. M. et al. J. Antimicrob. Chemother. 2012, 67, 387-397]. The macrophages were detached from the culture flask where they were attached by dry blows. To do this, it was incubated in cold for 5 minutes and after that the flask was hit with the palm of the hand until the cells were detached from the flask. Then, they were passed to a 25 ml capacity steriling conical bottom flask (Deltalab) to centrifuge them at 120 g for 5 minutes, removing the supernatant and were counted in Neubauer’s chamber. Cells were suspended in RPMI medium at a concentration of 1×10^4 cells/well, then cultured in 24-well plates into which a 12 mm round slide had previously been placed into each well. For adherence, the cells were left 24 h at 37° C. in 5% CO2. Subsequently, the cells were infected in vitro by placing Leishmania cells at the rate of 10 parasites/macrophage according to [Sánchez-Moreno. M et al. Med. Chem. 2011, 54, 970-979]. […] The products were allowed to act for 72 hours of incubation.
(§6) After that time, the crystals were removed and fixed with methanol on a slide and allowed to dry, after which DPX microscopy mounting medium (Panreac®) was added to it. Once the preparations had been mounted, they were dyed with Giemsa by diluting Azur-Eosin-Methylene Blue solution according to Giemsa DC (Code 251338) with Sorensen buffer (1:10 dilution). The preparations were covered and allowed to colour for 20 minutes, after which they were washed with distilled water and then allowed to drain and dry vertically. Finally, the amastigote forms were counted with the aim of immersion in a total of 200 cells.

[3] = system: L. braziliensis promastigote forms; experiment: In vitro activity against extracellular (promastigote) forms; type: cell-based, Leishmania braziliensis
Source text: as §1, §2, §3, §4

[4] = system: L. braziliensis amastigote forms; experiment: In vitro activity against intracellular (amastigote) forms in macrophages; type: cell-based, Leishmania braziliensis
Source text: as §1, §5, §6

[5] = system: L. donovani promastigote forms; experiment: In vitro activity against extracellular (promastigote) forms; type: cell-based, Leishmania donovani
Source text: as §1, §2, §3, §4

[6] = system: L. donovani amastigote forms; experiment: In vitro activity against intracellular (amastigote) forms in macrophages; type: cell-based, Leishmania donovani
Source text: as §1, §5, §6

[7] = system: J774.2 macrophages; experiment: Macrophage toxicity by flow cytometry; type: cell-based; conditions: J774.2 macrophages, 72 h of culture
Description: Macrophage toxicity: this study used the experimental model designed by the group of inventors [I. Ramírez-Macías. et. al. J. Antimicrob. Chemother. 2011, 66(4): 813-819] wherein flow cytometry is used. Briefly, macrophages from line J774.2 (ECACC number 91051511, obtained from a BALB/c female […] tumour in 1968) were deposited in a steriling tube and centrifuged at 120 g for 5 minutes. The supernatant was discarded and the cells were resuspended in MEM + Glutamine medium with 20% SBF (fetal bovine serum). 1×10^4 cells per well were then deposited from a 24-well titration plate and incubated for 24-48 h at 37° C. in a humid atmosphere enriched with 5% CO2 to fix them. […] After 72 h of incubation, the samples were prepared for reading on a flow cytometer. Specifically, 100 µl of propidium iodide solution (100 µg/ml) was added to each well and incubated for 10 min at 28° C. in the dark. Subsequently, 100 µl/well of fluorescein diacetate (FDA) (Sigma Chemical Co) in solution (100 ng/mL) was added and incubation was repeated under the same conditions for 10 minutes. Cells were recovered by centrifugation at 400 g for 10 minutes and washing the precipitate with PBS. Finally, the results were analysed in a FACS Vantage flow cytometer (Becton Dickinson) taking into account that the cells with the plasma membrane intact emit green colour as the esterases act on the FDA, while the cells that have lost the integrity of the membrane and are not viable, emit in the range close to 580 nm by penetrating the propidium iodide by passive diffusion and specifically binding to the nucleic acids thereof. Thus, to calculate the percentage of viability, the number of dead cells compared to controls was taken into account.

[8] = IC50 of macrophages / IC50 of parasite form

meglumine antimoniate [Glucantime, reference compound]
IC50 ([1]; 72 h): 18 ± 3.1 µM
Selectivity Index (SI) L. infantum Promastigote forms [1, 8]: 0.8
IC50 ([2]; 72 h): 24.2 ± 2.6 µM
Selectivity Index (SI) L. infantum Amastigote forms [2, 8]: 0.6
IC50 ([3]; 72 h): 18 ± 3.1 µM
Selectivity Index (SI) L. brazilensis Promastigote forms [3, 8]: 0.6
IC50 ([4]; 72 h): 24.2 ± 2.6 µM
Selectivity Index (SI) L. brazilensis Amastigote forms [4, 8]: 0.6
IC50 ([5]; 72 h): 18 ± 3.1 µM
Selectivity Index (SI) L. donvovani Promastigote forms [5, 8]: 0.7
IC50 ([6]; 72 h): 24.2 ± 2.6 µM
Selectivity Index (SI) L. donvovani Amastigote forms [6, 8]: 0.6
IC50 [7]: 15.2 ± 1 µM
